# In patent US10322135B2, “Pharmaceutical composition comprising indole compound” (LG CHEM, LTD., priority 2009, dated 2019):
# Columns and labels:
# [1] = Anti-oxidant effect by using DPPH; type: biochemical; settings: read-out: DPPH anti-oxidant effect (IC50); concentration decreasing absorbance at 517 nm to 50%; 30 min, room temperature
# Protocol: DPPH (1,1-diphenyl-2-picrylhydrazyl) is a stable free radical and has a purple color. […] Herein, the term “IC50” refers to the concentration of a compound which decreases absorbance at 517 nm to 50% of the original value.
# 180 μl of DPPH solution (200 μM in DMSO) was dispensed into each well of a 96-well plate, and 20 μl of compounds, which was serially diluted two-fold from 2,000 μM, was added thereto. They were then well mixed and kept at room temperature for 30 minutes. After 30 minutes, O.D. value at 517 nm was measured with a spectraMAX ELISA reader.
# H9C2 cells [2] = assay: Cell protection effect against oxidative stress induced by tBOOH (SRB staining); type: cell-based; settings: Rattus norvegicus, 400 μM tBOOH 2 hrs, concentration protecting 50% of cells from necrosis
# Protocol: It is known that tertiary-butylhydroperoxide (tBOOH) induces cell necrosis by causing oxidative stress in various cells. […] H9C2 cells were dispensed into each well of a 96-well plate (1.5×10 ^4 cells/100 μl/well). The next day, the cells were pretreated with each compound and then treated with tBOOH (final concentration: 400 μM) for 2 hrs. 50 μl of formaldehyde was added to each well to fix the cells. Cells were fixed for 30 minutes and washed with distilled water three times. Then, the plate was completely dried in a 50° C. dry oven and SRB solution was added thereto to stain remaining protein. The plate was washed with 1% acetic acid and dried. […] Herein, the term “IC50” refers to the concentration of compound which protects 50% of cells from necrosis induced by tBOOH treatment.
# [3] = Direct anti-oxidant effect on H2O2 (DHR123 probe, cell-free); type: biochemical; settings: DHR123 1.25 μM, 2 hrs
# Protocol: (§1) 10 μl of DHR123 probe (final concentration: 1.25 μM) was added to 10 μl of each compound which was diluted with 100 μl of DMEM complete media. H2O2 and tBOOH were added as the concentration shown in the following Table 5 and after 2 hrs, fluorescence at wavelengths (480 nm (ex)/538 nm (em)) was measured with spectraMax gemini. Herein, the term “IC25” refers to the concentration of compound which causes 25% decrease of fluorescence assuming the amount emitted by oxidation of DHR123 caused by H2O2 or tBOOH was 100%.
# [4] = Direct anti-oxidant effect on tBOOH (DHR123 probe, cell-free); type: biochemical; settings: DHR123 1.25 μM, 2 hrs
# Protocol: as §1
# [5] = Removal capacity of ONOO− (peroxynitrite) by using dihydrorhodamine 123; type: biochemical; settings: 50% inhibition of DHR123 oxidation by 1 μM ONOO−
# Protocol: ONOO^− (peroxynitrite), which is known as a kind of RNS, plays a very important role in oxidative stress. Thus, it is very important to evaluate the removal capacity of ONOO^− of necrosis inhibitors. It is well known that DHR123 probe is oxidized by ONOO^−. Thus, by using such a property, the capacity of each compound was measured.
# 10 μl of each compound, which was serially diluted 3-fold from 50 μM, was dispensed into each well of a 96-well plate, and then 170 μl of assay mixture (10 μM DHR123, 1×PBS, 100 μM DPTA without ONOO^−) was added to each well. Finally, 20 μl of ONOO^− solution (final concentration: 1 μM) was added to initiate a reaction. Herein, the term “IC50” refers to the concentration of compounds which causes 50% inhibition of oxidation of DHR123 by ONOO^−.
# H9C2 cells [6] = assay: Anti-oxidant effect by using dihydrorhodamine 123 in tBOOH-treated H9C2 cells; type: cell-based; settings: 1 hr pretreatment, 400 μM tBOOH 2 hrs, 25% inhibition of DHR123 fluorescence
# Protocol: Dihydrorhodamine 123 itself is nonfluorescent but is converted to fluorescent rhodamine 123 when it is oxidized by ROS (reactive oxygen species) or RNS (reactive nitrogen species). […] H9C2 cells were dispensed into each well of a 96-well plate (1.5×10^4 cells/100 μl/well). The next day, the cells were pretreated with each compound, which was serially diluted 3-fold from the highest concentration, for 1 hr, and then treated with 10 μl of DHR123 12.5 μM stock solution (final concentration: 1.25 μM) in 37° C. incubator for 30 minutes. The cells were then immediately treated with 400 μM tBOOH and incubated for 2 hrs. Then, fluorescence, which was excited at 480 nm and emitted at 538 nm, was measured with a spectraMAX Gemini microplate reader. […] PBS. Then 100 μl of PBS was added to each well of the 96-well plate and fluorescence of each cell was measured by immunofluorescence microscopy (fluorescence microscope: Olympus) (Because of DHR123 in cells, fluorescence is emitted in proportion to oxidation). In addition, inhibition of the generation of superoxide was measured with MitoSOX red probe (final concentration: 5 μM) as the same method.
IC50 [1],SMILES,IC50 (H9C2 cells [2]),other results
24 µM,"Cc1cc(NC2CCCC2)c2[nH]c(C3=N[C@@H](CC(=O)O)CS3)cc2c1 [Compound 1, [(S)-2-(7-cyclopentylamino-5-methyl-1H-indol-2-yl)-4,5-dihydro-thiazol-4-yl]-acetic acid]",–,–
24 µM,"Cc1cc(NC2CCOCC2)c2[nH]c(C3=N[C@@H](CC(=O)O)CS3)cc2c1 [Compound 2, {(S)-2-[5-methyl-7-(tetrahydropyran-4-ylamino)-1H-indol-2-yl]-4,5-dihydro-thiazol-4-yl}-acetic acid]",6.5 µM,–
17.5 µM,"Cc1cc(NC2CCCC2)c2[nH]c(C3=N[C@@H](CC(=O)O)CO3)cc2c1 [Compound 3, [(S)-2-(7-cyclopentylamino-5-methyl-1H-indol-2-yl)-4,5-dihydro-oxazol-4-yl]-acetic acid]",–,IC25(μM) H2O2 (0.3 mM) [3]: 2.2 µM; IC25(μM) H2O2 (0.6 mM) [3]: 2.15 µM; IC25(μM) tBOOH (0.2 mM) [4]: 2 µM; IC25(μM) tBOOH (0.4 mM) [4]: 2.4 µM
15 µM,"O=C(O)C[C@H]1CSC(c2cc3cccc(NC4CCCC4)c3[nH]2)=N1 [Compound 4, [(S)-2-(7-cyclopentylamino-1H-indol-2-yl)-4,5-dihydro-thiazol-4-yl]-acetic acid]",–,IC25(μM) H2O2 (0.3 mM) [3]: 2.3 µM; IC25(μM) H2O2 (0.6 mM) [3]: 3.6 µM; IC25(μM) tBOOH (0.2 mM) [4]: 3 µM; IC25(μM) tBOOH (0.4 mM) [4]: 5.8 µM
20 µM,"O=C(O)C[C@H]1CSC(c2cc3cc(Oc4ccccc4)cc(NC4CCCC4)c3[nH]2)=N1 [Compound 5, [(S)-2-(7-cyclopentylamino-5-phenoxy-1H-indol-2-yl)-4,5-dihydro-thiazol-4-yl]-acetic acid]",–,IC50 [5]: 3.4 µM
23 µM,"O=C1CN(CC[C@H]2CSC(c3cc4cc(Oc5ccccc5)cc(NC5CCCC5)c4[nH]3)=N2)CCN1 [Compound 6, 4-{2-[(S)-2-(7-cyclopentylamino-5-phenoxy-1H-indol-2-yl)-4,5-dihydro-thiazol-4-yl]-ethyl}-piperazin-2-one]",0.13 µM,–
25 µM,"Cc1nnc2n1CCN(CC[C@]1(c3cc4cc(Oc5ccccc5)cc(NC5CCCC5)c4[nH]3)CSC=N1)C2 [Compound 7, cyclopentyl-(2-{(S)-4-[2-(3-methyl-5,6-dihydro-8H-[1,2,4]triazolo[4,3-a]pyrazin-7-yl)-ethyl]-4,5-dihydro-thiazol-4-yl}-5-phenoxy-1H-indol-7-yl)-amine]",–,–
20.5 µM,"O=C(O)C[C@H]1CSC(c2cc3cccc(NCC4CCOCC4)c3[nH]2)=N1 [Compound 8, ((S)-2-{7-[(tetrahydropyran-4-ylmethyl)-amino]-1H-indol-2-yl}-4,5-dihydro-thiazol-4-yl)-acetic acid]",–,–
–,"O=S1(=O)CCN(Cc2cc(NC3CCOCC3)c3[nH]c(-c4ccccc4)cc3c2)CC1 [Compound 9, (tetrahydropyran-4-yl)-[2-phenyl-5-(1,1-dioxo-thiomorpholin-4-yl)methyl-1H-indol-7-yl]-amine]",< 0.2 µM,"IC25 (μM), anti-oxidant effect by using DHR 123 (H9C2 cells [6]): 0.10 µM"
22 µM,"O=S1(=O)CCN(Cc2cc(NCC3CCOCC3)c3[nH]c(-c4ccccc4)cc3c2)CC1 [Compound 10, [5-(1,1-dioxo-thiomorpholin-4-yl)methyl-2-phenyl-1H-indol-7-yl]-(tetrahydropyran-4-yl)methyl-amine]",–,–
12.5 µM,"O=S1(=O)CCN(Cc2cc(N(CC3CCOCC3)CC3CCOCC3)c3[nH]c(-c4ccccc4)cc3c2)CC1 [Compound 11, [5-(1,1-dioxo-thiomorpholin-4-yl)methyl-2-phenyl-1H-indol-7-yl]-bis-[(tetrahydropyran-4-yl)methyl]-amine]",–,–
19 µM,"O=C(C1CCCOC1)N1CCC(Nc2cc(CN3CCS(=O)(=O)CC3)cc3cc(-c4ccccc4)[nH]c23)CC1 (centres unmarked) [Compound 12, {4-[5-(1,1-dioxo-thiomorpholin-4-yl)methyl-2-phenyl-1H-indol-7-ylamino]-piperidin-1-yl}-(tetrahydropyran-3-yl)methanone]",–,"IC25(μM) H2O2 (0.3 mM) [3]: 1.65 µM; IC25(μM) H2O2 (0.6 mM) [3]: 2 µM; IC25 (μM), anti-oxidant effect by using DHR 123 (H9C2 cells [6]): 0.24 µM; IC50 [5]: 0.21 µM; IC25(μM) tBOOH (0.2 mM) [4]: 1.95 µM; IC25(μM) tBOOH (0.4 mM) [4]: 3 µM"
17 µM,"CS(=O)(=O)N1CCC(Nc2cc(CN3CCS(=O)(=O)CC3)cc3cc(-c4ccccc4)[nH]c23)CC1 [Compound 13, [5-(1,1-dioxo-thiomorpholin-4-yl)methyl-2-phenyl-1H-indol-7-yl]-(1-methylsulfonyl-piperidin-4-yl)-amine]",< 0.2 µM,"IC25 (μM), anti-oxidant effect by using DHR 123 (H9C2 cells [6]): <0.1 µM; IC50 [5]: 0.9 µM"
28 µM,"Cc1cc(NCC2CCOCC2)c2[nH]c(C3=N[C@@H](CC(=O)O)CS3)cc2c1 [Compound 14, ((S)-2-{5-methyl-7-[(tetrahydropyran-4-ylmethyl)-amino]-1H-indol-2-yl}-4,5-dihydro-thiazol-4-yl)-acetic acid]",0.72 µM,–
–,"c1ccc(-c2nc3cccc(NC4CCCC4)c3[nH]2)cc1 [Example 1, cyclopentyl-(2-phenyl-3H -benzimidazol-4-yl)-amine]",0.6 µM,–
–,"c1ccc(-c2nc3cccc(NC4CCOCC4)c3[nH]2)cc1 [Example 2, (2-phenyl-3H-benzimidazol-4-yl)-(tetrahydro-pyran-4-yl)-amine]",2 µM,–
